Laboratory results reported in US6472541B2, “Protecting groups with increased photosensitivities” (The Regents of the University of California, priority 1998, dated 2002).
Marks after values point to notes of the source that are not given here.

Legend:
[1] = Electronic absorption and emission properties; type: physicochemical
Description: Generally, chemicals and solvents were used directly as received unless otherwise noted. Acetonitrile, chloroform and dichloromethane were dried over 4A molecular sieves. Proton magnetic resonance spectra (^1H NMR) were recorded on a Gemini 200 MHz spectrometer (Varian; Palo Alto, Calif.) and reported in ppm (δ) downfield from tetramethylsilane with residual solvent peaks as the internal standards. Ultraviolet spectra were recorded on a Cary 3E UV-Visible spectrophotometer (Varian, Palo Alto, Calif., USA). Fluorescence spectra were recorded on a Fluorolog spectrofluorometer (SPEX; Edison, N.J., USA). Mass spectra were recorded on a electrospray mass spectrometer (5989B, Hewlett-Packard; Palo Alto, Calif., USA). Thin layer chromatography (TLC) and column chromatography were performed on precoated silica gel 60F-254 plates and 230-400 mesh silica gel 60 respectively (EM Separations; Gibbstown, N.J., USA). All manipulations of compounds sensitive to near ultraviolet light were performed under an orange safety lamp.
(§1) The electronic absorption and emission properties of the compounds were measured and the stability of the compounds toward hydrolysis in the dark was tested. Stability in the dark can be used to help identify photolabile protecting groups that can be used in a variety of different conditions. Specifically, the quantum efficiencies for one-photon excitation and rates of hydrolysis in the dark were determined.

brain slices = test: Two-photon infrared uncaging on brain slices, whole-cell recordings
Description: A map was created where the brightness at each picture element was proportional to the maximum current recorded with the laser focused at that position.
Two-photon infrared uncaging on brain slices was also carried out. […] The stream of pulses from the Ti:sapphire laser was raster-scanned across cell bodies and dendrites.

[2] = One-photon photolysis quantum efficiency (UV irradiation, HPLC analysis); type: physicochemical; conditions: 365 nm
Description: as §1
[…] The duration of each irradiation period was controlled by an electronic shutter. Between each irradiation, a small aliquot (10 μL) of the solution was removed for analysis by reversed phase HPLC with a Betabasic-18 column eluted with a isocratic mixture of 60% acetonitrile and water containing 0.1% trifluoracetic acid at a flow rate of 0.8 mL/min, using absorbance detection at 325 nm. […] […] Quantum efficiencies were calculated as (Iσt90%)^−1, where I is the irradiation intensity in einsteins (cm^−2s^−1), σ is the decadic extinction coefficient in cm^2mol^−1 (10^3 times ε, the usual extinction coefficient in M^−1cm^−1), and t90% is the irradiation time in seconds for 90% conversion to product. […] Dark hydrolysis rates were measured similarly except without illumination.

[3] = In vitro measurements of two-photon uncaging and fluorescence cross-sections; type: physicochemical; conditions: pH 7.2
Description: Measurements of cross-sections for two-photon uncaging were carried out in microcuvettes with cylindrical cavities having a 1 cm path length and 20 μL total volume (Type 26F, Starna). Femtosecond infrared pulses from a mode-locked titanium-sapphire laser (Spectra-Physics TSUNAMI, pumped by a Spectra-Physics MILLENNIUM) were aimed along the axis of the sample chamber and focused in its center with a 25 mm focal length lens (06LXP003/076, Melles Griot, Irvine, Calif.) optimized for infrared lasers. The pulse parameters were estimated by replacing the caged compound by a solution of fluorescein, a reference compound of known fluorescence quantum yield Qf2 (0.9) and two-photon absorbance cross-section δaF (30 and 38 GM at 740 and 800 nm respectively). The time-averaged fluorescence <F(t)>collected by the detector is given by equation (1)
<F(t)>=0.5φQf2δaFCF<I0^2(t)>∫S^2(r)dV (1)
where φ is the collection efficiency of the detector, CF is the concentration of fluorescein, <I0^2(t)> is the mean squared light intensity, S(r) is a unitless spatial distribution function, and the integral is over the volume of the microcuvette. The fluorescence emitted at right angles to the laser beam was measured through a 535 nm bandpass filter in front of a silicon photodiode radiometer (IL1700, International Light). The collection efficiency φ was estimated as Ay/(4πR^2n^2), where A is the area of the detector (0.38 cm^2), y is the fraction of the integrated emission spectrum transmitted by the interference filter (0.377), measured separately in a spectrofluorometer, R is the distance from the center of the cuvette to the detector (3.83 cm), and n is the refractive index of water (1.333). For photolysis of a caged compound or substrate, the number NP of molecules of product formed per unit time is (eq. 2):
NP=0.5Qu2δaSCS<I0^2(t)>∫S^2(r)dV (2)
where Qu2, δaS, and CS are the quantum efficiency for two-photon uncaging, absorbance cross-section, and concentration of the substrate, respectively. NP was measured by HPLC sampling of the microcuvette as for the one-photon photolysis. The uncaging action cross-section δu2 (≡Qu2δaS) can therefore be estimated by (eq. 3): [formula]
Similarly, when the substrate is also fluorescent, its two-photon fluorescence action cross-section δf2S (≡Qf2SδaS) can be estimated as (eq. 4): [formula]
Here the subscripts S and F distinguish values for the substrate and for the fluorescein reference. If one assumes that one- and two-photon quantum efficiencies are the same, then δu2/Qu1 and δf2S/Qf1S should both equal δaS. In fact, the former values are typically about twice the latter. All of them are directly proportional to the assumed value of Qf2 for fluorescein.

rat cortical neurons = test: One-photon UV uncaging of caged glutamate on brain slices, neuronal responses; type: cell-based; conditions: one-photon UV uncaging at 365 nm, 10 mW, average
Description: The photolabile protecting groups can be uncaged by one-photon or two-photon photolysis. One-photon ultraviolet uncaging experiments were carried out on brain slices. In particular, compound 7 was used to deliver glutamate to rat cortical neurons. One-photon UV uncaging of caged glutamate compound at 365 nm released the glutamate. Neuronal responses were measured after directly stimulating cells as described in Sawatari and Callaway, Nature 380:442-446 (1996). The cells were exposed to compound 7 (Bhc-Glu) or γ-(α-carboxy-2-nitrobenzyl)glutamate, trifluoroacetate salt (compound 1, CNB-glutamate). The one-photon uncaging was carried out as described in FIG. 1 depicts the lower power needed to uncage compound 7 (Bhc-Glu) in the neuron sample in comparison to compound 1 (alpha-carboxy nitrobenzyl-caged glutamate, CNB-Glu). At 10 mW the compound 7-stimulated neurons respond, on average, at amplitudes 80% of their maximum, while compound 1-stimulated neurons are responding at less than 20% of their maximum amplitudes.

[4] = In vitro measurements of two-photon uncaging and fluorescence cross-sections; type: physicochemical; conditions: measured at 780 nm on an independent apparatus
[5] = Mechanism of photolysis (triplet state lifetime); type: physicochemical
From the text: The halogenated coumarin derivatives have good dark stability, and high one-photon and two-photon uncaging efficiencies. Without being bound to any particular theory, halogenation of the coumarin may have increased the two-photon cross-sections by lowering the pKa of the chromophore below physiological pH and promoting formation of the more strongly absorbing anion. Also, the heavy atoms may promote intersystem crossing to the triplet, which is believed to be the photochemically reactive state. […] The mechanism of photolysis of compound 7 and compound 23 indicate that the solvolysis occurs via the triplet state with a lifetime of about 1 μs. […] Although compound 6 had the highest cross-section, its photolysis was complicated by multiple secondary photoproducts. The monobromo compound (compound 5) was much more tractable and easily formed caged compounds.

Qf1 Quantum efficiency for fluorescence with one-photon excitation [1]: 0.38
λem [1]: 474 nm
ε Molar Absorptivity at 365 nm ([1]; 365 nm): 17,300 M^−1cm^−1
ε Molar Absorptivity at 400 nm ([1]; 400 nm): 5,400 M^−1cm^−1
λmax Wavelength of peak absorbance ([1]; pH 7.2): 368 nm
ε Molar absorptivity at absorbance peak ([1]; pH 7.2, at absorbance peak): 17,470 M^−1cm^−1
Entry into the cell (brain slices; photolysis map of neuron): did not enter the cell
Qu1 Quantum efficiency for uncaging with one-photon excitation at 365 nm [2]: 0.019
εQu1 One-photon action cross section (product of molar absorptivity and photolysis quantum yield) at 365 nm [2]: 329 M⁻¹ cm⁻¹
δu (740 nm) uncaging action cross-section for two-photon excitation ([3]; 740 nm): 0.98 ± 10^−50 cm^4s/photon
δu (800 nm) uncaging action cross-section for two-photon excitation ([3]; 800 nm): 0.37 ± 10^−50 cm^4s/photon
δf fluorescence action cross-section for two-photon excitation [4]: 2.2* 10^−50 cm^4s/photon
SMILES: O=C(O)CC[C@H](NC(=O)OCc1cc(=O)oc2cc(O)c(Br)cc12)C(=O)O [Compound 7, N-(6-Bromo-7-hydroxycoumarin-4-yl)methoxycarbonyl glutamate]
Response to laser scans after application of caged compound (brain slices; Ti:sapphire laser raster-scanned across cell bodies and dendrites): scans evoked inward currents
Change in holding current on application of caged compound (intrinsic agonist activity) (brain slices; whole-cell recordings, 15 cells, before photolysis): did not cause detectable changes in holding current
Neuron response amplitude, percent of maximum amplitude (rat cortical neurons): 80%
Lifetime of triplet state through which solvolysis occurs [5]: about 1 μs
